The source of these data is article PMC6494078, “Development of an HPLC-based guanosine monophosphate kinase assay and application to Plasmodium vivax guanylate kinase” (Analytical Biochemistry, 2019).

What is called Km is the substrate concentration at which the rate is half of its maximum. In general, inhibition refers to the change of the read-out against control, counted positive when it falls. What is called IC50 is the midpoint of a concentration-inhibition curve. The low end stands for higher potency, the high end for lower potency.

Common to all, as to assay type: biochemical
In experiment [1] the target is T1, Plasmodium vivax guanylate kinase (PvGK) (Plasmodium vivax, UniProt A5K709).
T1 construct: gene PVX_099895; full-length PvGK with an N-terminal hexa-histidine tag
Put plainly: HPLC guanylate kinase assay, ATP saturation curve (sigmoidal, h = […]; apparent Kprime).

The target in experiment [2] is T1, Plasmodium vivax guanylate kinase (PvGK). Put plainly: HPLC detection of product formed by purified enzyme.
For experiment [3] the target is unchanged. Put plainly: HPLC guanylate kinase assay, GMP saturation curve (substrate inhibition).
Experiment [4] has the same target. Put plainly: HPLC guanylate kinase inhibition assay, percent inhibition at […]. Particulars: read-out: % inhibition at 5 mM.
For experiment [5] the target is unchanged. Put plainly: HPLC guanylate kinase inhibition assay, IC50 curve.

T1 sequence (A5K709 entry or part of it): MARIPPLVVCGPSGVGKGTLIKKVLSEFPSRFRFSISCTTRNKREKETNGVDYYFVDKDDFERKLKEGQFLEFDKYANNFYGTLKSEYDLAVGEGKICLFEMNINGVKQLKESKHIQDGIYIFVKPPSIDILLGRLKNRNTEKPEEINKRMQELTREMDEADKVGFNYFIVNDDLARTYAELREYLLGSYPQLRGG

`Nc1ncnc2c1ncn2[C@@H]1O[C@H](COP(=O)(O)OP(=O)(O)OP(=O)(O)O)[C@@H](O)[C@H]1O` [ATP]: the Km in experiment [1] is 15.6 ± 2.07 µM. Consider `Nc1nc2c(ncn2[C@@H]2O[C@H](COP(=O)(O)OP(=O)(O)O)[C@@H](O)[C@H]2O)c(=O)[nH]1` [GDP], for which, in experiment [2], the “HPLC detection of product formed by purified enzyme” value was “used to study the kinetics of the forward reaction (forming ADP and GDP) catalyzed by PvGK”. Turning to `Nc1nc(=O)c2ncn([C@@H]3O[C@H](COP(=O)(O)O)[C@@H](O)[C@H]3O)c2[nH]1` [GMP], the “HPLC guanylate kinase assay, GMP saturation curve (substrate inhibition)” value in experiment [3] is reported as “showed a decrease in initial velocity with increasing GMP concentrations, indicating strong substrate inhibition”. With `O=c1ccc2ccc(O)c(O)c2o1` [compound 1, 7,8-dihydroxycoumarin], the inhibition at 5000 µM in experiment [4] stood at 68%. For `O=C(O)C1CSC2(C(=O)O)CCC(=O)N12` (centres unmarked) [compound 2, Compound 2], half-maximal inhibition in experiment [5] (IC50) was put at 2700 µM.
